# Measurements reported in patent US11274104B2, “Crystal forms of thiophene derivatives” (Tianjin Hemay Pharmaceutical Co., Ltd, priority 2018, dated 2022).
# Columns and labels:
# Type in all cases: physicochemical
# [1] = Accelerated stability (40° C., RH 75%, 1 month)
# Protocol: Crystal form II of (S)—N-[5-[1-(3-ethoxy-4-methoxyphenyl)-2-(methylsulfonyl)ethyl]-4,6-dioxo-5,6-dihydro-4H-thieno[3,4-c]pyrrole-1-yl]acetamide prepared according to the process of Example 1 was placed in a stability text box at 40° C. and Rh=75%. After 1 month, liquid chromatogram and DSC were tested.
# Hygroscopicity (RH=80%) = assay: Hygroscopicity (RH=80%)
# Protocol: Hygroscopicity of crystal form II of (S)—N-[5-[1-(3-ethoxy-4-methoxyphenyl)-2-(methylsulfonyl)ethyl]-4,6-dioxo-5,6-dihydro-4H-thieno[3,4-c]pyrrole-1-yl]acetamide was studied. Crystal form II of (S)—N-[5-[1-(3-ethoxy-4-methoxyphenyl)-2-(methylsulfonyl)ethyl]-4,6-dioxo-5,6-dihydro-4H-thieno[3,4-c]pyrrole-1-yl]acetamide was placed in a drier containing saturated ammonium chloride solution (RH=80%) until weight was balanced. The crystal form was tested with XRPD.
# Crystal form II of (S)—N-[5-[1-(3-ethoxy-4-methoxyphenyl)-2-(methylsulfonyl)ethyl]-4,6-dioxo-5,6-dihydro-4H-thieno[3,4-c]pyrrole-1-yl]acetamide prepared according to the process of Example 1 was tested.
# Grinding stability = conditions: grinding in a glass mortar for 5 minutes
# Protocol: Crystal form II of (S)—N-[5-[1-(3-ethoxy-4-methoxyphenyl)-2-(methylsulfonyl)ethyl]-4,6-dioxo-5,6-dihydro-4H-thieno[3,4-c]pyrrole-1-yl]acetamide prepared according to the process of Example 1 was ground in a glass mortar for 5 minutes. The ground samples were tested with XRPD.
# [2] = High temperature stability (40° C., 1 month)
# Protocol: Crystal form II of (S)—N-[5-[1-(3-ethoxy-4-methoxyphenyl)-2-(methylsulfonyl)ethyl]-4,6-dioxo-5,6-dihydro-4H-thieno[3,4-c]pyrrole-1-yl]acetamide prepared according to the process of Example 1 was placed at 40° C. (high temperature). After 1 month, liquid chromatogram and DSC were tested.
# [3] = Illumination stability (4500 lux, 1 month); conditions: liquid chromatogram
# Protocol: Crystal form II of (S)—N-[5-[1-(3-ethoxy-4-methoxyphenyl)-2-(methylsulfonyl)ethyl]-4,6-dioxo-5,6-dihydro-4H-thieno[3,4-c]pyrrole-1-yl]acetamide prepared according to the process of Example 1 was placed in a 4500 lux of illumination box for 1 month. Liquid chromatogram and DSC were tested after 1 month.
# [4] = Pressure stability (tablet press); conditions: single punch tablet press, tablet 6 mm, hardness 25-30 N; DSC (FIG. 5)
# Protocol: Crystal form II of (S)—N-[5-[1-(3-ethoxy-4-methoxyphenyl)-2-(methylsulfonyl)ethyl]-4,6-dioxo-5,6-dihydro-4H-thieno[3,4-c]pyrrole-1-yl]acetamide was pressed by tablet press machine with single punch. The diameter of the tablet was 6 mm and the hardness was 25-30 N. DSC test was carried out on pressed powder.
# [5] = day 0, before storage at 40° C., liquid chromatogram
# [6] = storage at 40° C., 1 month, liquid chromatogram
smiles,measurement,setting,value
"CCOc1cc([C@@H](CS(C)(=O)=O)N2C(=O)c3csc(NC(C)=O)c3C2=O)ccc1OC [crystal form II, (S)—N-[5-[1-(3-ethoxy-4-methoxyphenyl)-2-(methylsulfonyl)ethyl]-4,6-dioxo-5,6-dihydro-4H-thieno[3,4-c]pyrrole-1-yl]acetamide]",stability under high-temperature and high-humidity conditions (in words),"[1]; 40° C., 1 month",good stability
same,Relevant Substance Contents at Day 0 (%),[1]; [5],0.11%
same,Relevant Substance Contents after 1 Month (%),[1]; [6],0.11%
same,hygroscopicity (in words),Hygroscopicity (RH=80%); RH=80%,hardly absorbed moisture
same,Weight Increase,"Hygroscopicity (RH=80%); RH=80% (saturated ammonium chloride solution) until weight balanced, mAPI 0.497 g",-0.001 g
same,Moisture Absorption (%),Hygroscopicity (RH=80%); RH=80% until weight balanced,0%
same,Crystal Form after Absorbing Moisture,"Hygroscopicity (RH=80%); RH=80% until weight balanced, XRPD",did not change
same,grinding stability (in words),Grinding stability,good grinding stability
same,stability under high temperature conditions (in words),"[2]; 40° C., 1 month",good stability
same,Relevant Substance Contents at Day 0 (%),[2]; [5],0.10%
same,Relevant Substance Contents after 1 Month (%),[2]; [6],0.12%
same,Relevant Substance Contents after 1 Month (%),"[3]; 4500 lux, 1 month",0.06%
same,Relevant Substance Contents at Day 0 (%),"[3]; day 0, before illumination at 4500 lux",0.06%
same,pressure stability (in words),[4],good stability
